Measured values published in ChEMBL document CHEMBL1201862, “PubChem BioAssay data set” (2004).
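Cells were grown in 96-well plates and exposed to each compound for 48 hours at five concentrations; endpoints were interpolated linearly between bracketing concentrations, or set to the highest concentration if not reached. GI50 = concentration required for 50% inhibition of growth.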 Active and inactive are the calls of the source. Cut-off read from the data, not from the text of the source: active = GI50 up to about 1.1 µM and inactive = higher.

Key:
Assay in all cases: DTP human tumour cell line panel, 48 h
UACC-62 = test system: UACC-62
DMS-114 = test system: DMS-114
A498 = test system: A498
CAKI-1 = test system: CAKI-1
SF-295 = test system: SF-295
HCT-15 = test system: HCT-15
KM12 = test system: KM12
KM-20L2 = test system: KM-20L2
A549 = test system: A549
SN12C = test system: SN12C
SK-MEL-5 = test system: SK-MEL-5
HCT-116 = test system: HCT-116
SW-620 = test system: SW-620
SK-MEL-28 = test system: SK-MEL-28
786-0 = test system: 786-0
XF498 = test system: XF498
HCC 2998 = test system: HCC 2998
HL-60 = test system: HL-60
NCI-H23 = test system: NCI-H23
NCI-H460 = test system: NCI-H460
HOP-62 = test system: HOP-62
RXF 631 = test system: RXF 631
OVCAR-5 = test system: OVCAR-5
TK-10 = test system: TK-10
SF-539 = test system: SF-539
SNB-19 = test system: SNB-19
LOX IMVI = test system: LOX IMVI
HOP-18 = test system: HOP-18
SK-OV-3 = test system: SK-OV-3
LXFL 529 = test system: LXFL 529
ACHN = test system: ACHN
MOLT-4 = test system: MOLT-4
SR = test system: SR
HOP-92 = test system: HOP-92
OVCAR-3 = test system: OVCAR-3
COLO 205 = test system: COLO 205
OVCAR-8 = test system: OVCAR-8
RXF 393 = test system: RXF 393
M19-MEL = test system: M19-MEL
SF-268 = test system: SF-268
OVCAR-4 = test system: OVCAR-4
M14 = test system: M14
UACC-257 = test system: UACC-257
IGROV-1 = test system: IGROV-1
K562 = test system: K562
NCI-H522 = test system: NCI-H522
U-251 = test system: U-251
EKVX = test system: EKVX
SNB-75 = test system: SNB-75
Malme-3M = test system: Malme-3M
HT-29 = test system: HT-29
DLD-1 = test system: DLD-1
UO-31 = test system: UO-31
RPMI-8226 = test system: RPMI-8226
CCRF-CEM = test system: CCRF-CEM
SNB-78 = test system: SNB-78
NCI-H226 = test system: NCI-H226
DMS-273 = test system: DMS-273
SK-MEL-2 = test system: SK-MEL-2

`C=C(C)C1CC=C(C)CC1` (stereo not drawn) was tested, and the GI50 (UACC-62) was 838 µM (inactive), the GI50 (DMS-114) was 891 µM (inactive) and the GI50 (A498) was 906 µM (inactive). The GI50 (CAKI-1) was 935 µM (inactive), the GI50 (SF-295) was 925 µM (inactive) and the GI50 (HCT-15) was 891 µM. The GI50 (KM12) was 1020 µM (inactive), the GI50 (KM-20L2) was 904 µM (inactive) and the GI50 (A549) was 968 µM (inactive). The GI50 (SN12C) was 893 µM (inactive), the GI50 (SK-MEL-5) was 849 µM (inactive) and the GI50 (HCT-116) was 923 µM (inactive). For the same compound, the GI50 (SW-620) was 895 µM (inactive), the GI50 (SK-MEL-28) was 951 µM (inactive) and the GI50 (786-0) was 923 µM (inactive). For the same compound, the GI50 (XF498) was 993 µM (inactive), the GI50 (HCC 2998) was 973 µM (inactive) and the GI50 (HL-60) was 817 µM (inactive). For the same compound, the GI50 (NCI-H23) was 933 µM (inactive), the GI50 (NCI-H460) was 968 µM (inactive) and the GI50 (HOP-62) was 883 µM (inactive). For the same compound, the GI50 (RXF 631) was 908 µM (inactive), the GI50 (OVCAR-5) was 968 µM (inactive) and the GI50 (TK-10) was 1000 µM (inactive). For the same compound, the GI50 (SF-539) was 899 µM (inactive), the GI50 (SNB-19) was 906 µM (inactive) and the GI50 (LOX IMVI) was 897 µM (inactive). For the same compound, the GI50 (HOP-18) was > 100 µM (inactive), the GI50 (SK-OV-3) was 1140 µM (inactive) and the GI50 (LXFL 529) was 855 µM (inactive). The GI50 (ACHN) was 871 µM (inactive), the GI50 (MOLT-4) was 1140 µM (inactive) and the GI50 (SR) was 889 µM (inactive). For the same compound, the GI50 (HOP-92) was 841 µM (inactive), the GI50 (OVCAR-3) was 891 µM (inactive) and the GI50 (COLO 205) was 1010 µM (inactive). The GI50 (OVCAR-8) was 1040 µM (inactive), the GI50 (RXF 393) was 982 µM (inactive) and the GI50 (M19-MEL) was 879 µM (inactive). The GI50 (SF-268) was 944 µM (inactive), the GI50 (OVCAR-4) was 964 µM (inactive) and the GI50 (M14) was 893 µM (inactive). For the same compound, the GI50 (UACC-257) was 927 µM (inactive), the GI50 (IGROV-1) was 993 µM (inactive) and the GI50 (K562) was 813 µM (inactive). For the same compound, the GI50 (NCI-H522) was 989 µM (inactive), the GI50 (U-251) was 787 µM (inactive) and the GI50 (EKVX) was 1030 µM (inactive). The GI50 (SNB-75) was 865 µM (inactive), the GI50 (Malme-3M) was 885 µM (inactive) and the GI50 (HT-29) was 923 µM (inactive). For the same compound, the GI50 (DLD-1) was 885 µM (inactive), the GI50 (UO-31) was 925 µM (inactive) and the GI50 (RPMI-8226) was > 100 µM (inactive). For the same compound, the GI50 (CCRF-CEM) was 826 µM (inactive), the GI50 (SNB-78) was 986 µM (inactive) and the GI50 (NCI-H226) was 830 µM (inactive). For the same compound, the GI50 (DMS-273) was 993 µM (inactive) and the GI50 (SK-MEL-2) was 798 µM (inactive).

In the case of `N#CC12CC3(CCC1CCC1(C2)OCCO1)OCCO3` (stereo not drawn), the GI50 (UACC-62) is reported as > 100 µM (inactive), the GI50 (DMS-114) is reported as > 100 µM (inactive) and the GI50 (A498) is reported as > 100 µM (inactive). For the same compound, the GI50 (CAKI-1) was > 100 µM (inactive), the GI50 (SF-295) was > 100 µM (inactive) and the GI50 (HCT-15) was over 100 µM. The GI50 (KM12) was > 100 µM (inactive), the GI50 (KM-20L2) was > 100 µM (inactive) and the GI50 (A549) was > 100 µM (inactive). The GI50 (SN12C) was > 100 µM (inactive), the GI50 (SK-MEL-5) was > 100 µM (inactive) and the GI50 (HCT-116) was > 100 µM (inactive). The GI50 (SW-620) was > 100 µM (inactive), the GI50 (SK-MEL-28) was > 100 µM (inactive) and the GI50 (786-0) was > 100 µM (inactive). For the same compound, the GI50 (XF498) was > 100 µM (inactive), the GI50 (HCC 2998) was > 100 µM (inactive) and the GI50 (HL-60) was > 100 µM (inactive). For the same compound, the GI50 (NCI-H23) was > 100 µM (inactive), the GI50 (NCI-H460) was > 100 µM (inactive) and the GI50 (HOP-62) was > 100 µM (inactive). For the same compound, the GI50 (RXF 631) was > 100 µM (inactive), the GI50 (OVCAR-5) was > 100 µM (inactive) and the GI50 (TK-10) was > 100 µM (inactive). For the same compound, the GI50 (SF-539) was > 100 µM (inactive), the GI50 (SNB-19) was > 100 µM (inactive) and the GI50 (LOX IMVI) was > 100 µM (inactive). The GI50 (HOP-18) was > 100 µM (inactive), the GI50 (SK-OV-3) was > 100 µM (inactive) and the GI50 (LXFL 529) was > 100 µM (inactive). The GI50 (ACHN) was > 100 µM (inactive), the GI50 (MOLT-4) was > 100 µM (inactive) and the GI50 (SR) was > 100 µM (inactive). For the same compound, the GI50 (HOP-92) was > 100 µM (inactive), the GI50 (OVCAR-3) was > 100 µM (inactive) and the GI50 (COLO 205) was > 100 µM (inactive). The GI50 (OVCAR-8) was > 100 µM (inactive), the GI50 (RXF 393) was > 100 µM (inactive) and the GI50 (M19-MEL) was > 100 µM (inactive). For the same compound, the GI50 (SF-268) was > 100 µM (inactive), the GI50 (OVCAR-4) was > 100 µM (inactive) and the GI50 (M14) was > 100 µM (inactive). For the same compound, the GI50 (UACC-257) was > 100 µM (inactive), the GI50 (IGROV-1) was > 100 µM (inactive) and the GI50 (K562) was > 100 µM (inactive). For the same compound, the GI50 (NCI-H522) was > 100 µM (inactive), the GI50 (U-251) was > 100 µM (inactive) and the GI50 (EKVX) was > 100 µM (inactive). For the same compound, the GI50 (SNB-75) was > 100 µM (inactive), the GI50 (Malme-3M) was > 100 µM (inactive) and the GI50 (DLD-1) was > 100 µM (inactive). For the same compound, the GI50 (UO-31) was > 100 µM (inactive), the GI50 (RPMI-8226) was > 100 µM (inactive) and the GI50 (CCRF-CEM) was > 100 µM (inactive). For the same compound, the GI50 (SNB-78) was > 100 µM (inactive), the GI50 (NCI-H226) was > 100 µM (inactive) and the GI50 (DMS-273) was > 100 µM (inactive). The GI50 (SK-MEL-2) was > 100 µM (inactive).

`C/C=C1\CN2CCc3c([nH]c4ccccc34)C2CC1CCO` (stereo not drawn) was tested, and the GI50 (DMS-114) was > 100 µM (inactive), the GI50 (A498) was > 100 µM (inactive) and the GI50 (SF-295) was > 100 µM (inactive). For the same compound, the GI50 (HCT-15) was over 100 µM, the GI50 (KM12) was > 100 µM (inactive) and the GI50 (KM-20L2) was > 100 µM (inactive). The GI50 (A549) was > 100 µM (inactive), the GI50 (SN12C) was > 100 µM (inactive) and the GI50 (SK-MEL-5) was > 100 µM (inactive). The GI50 (HCT-116) was > 100 µM (inactive), the GI50 (SW-620) was > 100 µM (inactive) and the GI50 (SK-MEL-28) was > 100 µM (inactive). For the same compound, the GI50 (786-0) was > 100 µM (inactive), the GI50 (XF498) was > 100 µM (inactive) and the GI50 (HCC 2998) was > 100 µM (inactive). For the same compound, the GI50 (HL-60) was > 100 µM (inactive), the GI50 (NCI-H23) was > 100 µM (inactive) and the GI50 (NCI-H460) was > 100 µM (inactive). For the same compound, the GI50 (HOP-62) was > 100 µM (inactive), the GI50 (RXF 631) was > 100 µM (inactive) and the GI50 (OVCAR-5) was > 100 µM (inactive). For the same compound, the GI50 (TK-10) was > 100 µM (inactive), the GI50 (SF-539) was > 100 µM (inactive) and the GI50 (SNB-19) was > 100 µM (inactive). For the same compound, the GI50 (LOX IMVI) was > 100 µM (inactive), the GI50 (HOP-18) was > 100 µM (inactive) and the GI50 (SK-OV-3) was > 100 µM (inactive). For the same compound, the GI50 (LXFL 529) was > 100 µM (inactive), the GI50 (ACHN) was > 100 µM (inactive) and the GI50 (MOLT-4) was > 100 µM (inactive). The GI50 (SR) was > 100 µM (inactive), the GI50 (HOP-92) was 48 µM (inactive) and the GI50 (OVCAR-3) was > 100 µM (inactive). For the same compound, the GI50 (COLO 205) was > 100 µM (inactive), the GI50 (OVCAR-8) was > 100 µM (inactive) and the GI50 (RXF 393) was > 100 µM (inactive). The GI50 (M19-MEL) was > 100 µM (inactive), the GI50 (SF-268) was > 100 µM (inactive) and the GI50 (OVCAR-4) was > 100 µM (inactive). The GI50 (M14) was > 100 µM (inactive), the GI50 (UACC-257) was > 100 µM (inactive) and the GI50 (IGROV-1) was > 100 µM (inactive). For the same compound, the GI50 (K562) was > 100 µM (inactive), the GI50 (NCI-H522) was > 100 µM (inactive) and the GI50 (U-251) was > 100 µM (inactive). For the same compound, the GI50 (EKVX) was > 100 µM (inactive), the GI50 (SNB-75) was 28.8 µM (inactive) and the GI50 (Malme-3M) was > 100 µM (inactive). For the same compound, the GI50 (HT-29) was > 100 µM (inactive), the GI50 (DLD-1) was > 100 µM (inactive) and the GI50 (UO-31) was 74.8 µM (inactive). For the same compound, the GI50 (CCRF-CEM) was > 100 µM (inactive), the GI50 (SNB-78) was > 100 µM (inactive) and the GI50 (NCI-H226) was > 100 µM (inactive). For the same compound, the GI50 (DMS-273) was > 100 µM (inactive) and the GI50 (SK-MEL-2) was > 100 µM (inactive).
